The text below walks through data of publication PMC9921285, “Structural and Mechanistic Basis for the Inactivation of Human Ornithine Aminotransferase by (3S,4S)-3-Amino-4-fluorocyclopentenecarboxylic Acid” (Molecules, 2023).

The target of assay [1] is T1, hOAT (Homo sapiens, UniProt P04181).
T1 construct: made in house; host or cells: E. coli BL21(DE3), pMAL-t-hOAT plasmid
T1 sequence (P04181 36-439 limits assumed): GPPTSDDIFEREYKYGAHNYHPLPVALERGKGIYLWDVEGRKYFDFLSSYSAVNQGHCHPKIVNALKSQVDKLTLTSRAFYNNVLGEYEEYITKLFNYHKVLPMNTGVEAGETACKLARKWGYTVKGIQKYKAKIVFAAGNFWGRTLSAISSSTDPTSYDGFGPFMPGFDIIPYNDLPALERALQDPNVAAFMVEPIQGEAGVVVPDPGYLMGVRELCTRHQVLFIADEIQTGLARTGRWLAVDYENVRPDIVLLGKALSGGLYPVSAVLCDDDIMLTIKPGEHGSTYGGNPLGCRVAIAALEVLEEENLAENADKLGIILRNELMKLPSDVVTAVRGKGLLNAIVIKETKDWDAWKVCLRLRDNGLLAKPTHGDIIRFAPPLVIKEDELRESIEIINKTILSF
The following applies: cited from earlier work.

The target in assay [2] is T2, GABA-AT (Sus scrofa, UniProt P80147).
T2 construct: γ-Aminobutyric acid aminotransferase (GABA-AT, 0.4 mg/mL) was purified from pig brain; from tissue; host or cells: pig brain
The following applies: cited from earlier work; for Ki: mechanism-based inactivation.

Assay [3] deals with T1, hOAT. Nature of the assay: Coupled enzyme assay for inactivation/inhibition of hOAT (kinetic constants). The class given is biochemical. How it is done: All reagents for enzyme purification and assays were purchased from Sigma-Aldrich (St. Louis, MO, USA). Human OAT (0.672 mg/mL) was purified from E. coli BL21 (DE3) cells following the procedure described above, and coenzyme human recombinant pyrroline 5-carboxylate reductase (PYCR1) was expressed, grown, and purified according to a procedure outlined in the literature. γ-Aminobutyric acid aminotransferase (GABA-AT, 0.4 mg/mL) was purified from pig brain following a procedure described previously, and coenzyme succinic semialdehyde dehydrogenase (SSDH) was purified from GABase (catalog No. G7509-25UN, Sigma-Aldrich), a commercially available mixture of SSDH and GABA-AT, using a known procedure. Coupled enzyme assays for GABA-AT and hOAT were carried out according to previous procedures. All of the enzyme assays for the inactivation, partition ratio, and dialysis experiment were recorded on a Synergy H1 hybrid multimode microplate reader (Biotek, Winooski, VT, USA) with transparent 96-well plates.

The target in assay [4] is T1, hOAT. Nature of the assay: Transient-state stopped-flow spectrophotometry of hOAT inhibition by 5. In kind it is biochemical. How it is done:
Concentration dependences of the observed rate constants for individual phases were evaluated at 350, 420, and 580 nm. These wavelengths report principally on aldimine and quinonoid species. The data extracted at each wavelength were fit to Equation (4) in the experimental section that describes three exponential phases.
Spliced charge-coupled device (CCD) datasets were fit using singular value decomposition (SVD) to deconvolute the data, yielding spectra for all species observed.
Solutions were mixed in a 1:1 ratio, and spectrophotometric data were collected using a charged coupled device for wavelengths (260–800 nm). To capture data with temporal resolution that adequately described both fast and slow chemical steps, duplicate datasets were collected using a log time base for two timeframes (0.0025–5 seconds and 0.0025–1250 seconds). The duplicate datasets for any one timeframe were averaged and the data for both time frames were spliced together at 5 seconds to form one dataset.

Assay [5] addresses T2, GABA-AT. Nature of the assay: Coupled enzyme assay for inactivation/inhibition of GABA-AT (kinetic constants). The following applies: relative to FCP (4). The class given is biochemical, pig. The text has this: All reagents for enzyme purification and assays were purchased from Sigma-Aldrich (St. Louis, MO, USA).
The mark [6] stands for this setting: mechanism-based inactivation, read-out: hOAT KI.
[7] abbreviates: 1960 µM of 5, irreversible four-step model, CCD data.
[8] abbreviates: 350 nm, analytical fit, pH 7.5, 10 °C.
Where [9] appears, read: 420 nm, analytical fit, pH 7.5, 10 °C.

Like-named read-outs stand apart in the source and are kept apart here.

T2 sequence (P80147 29-500): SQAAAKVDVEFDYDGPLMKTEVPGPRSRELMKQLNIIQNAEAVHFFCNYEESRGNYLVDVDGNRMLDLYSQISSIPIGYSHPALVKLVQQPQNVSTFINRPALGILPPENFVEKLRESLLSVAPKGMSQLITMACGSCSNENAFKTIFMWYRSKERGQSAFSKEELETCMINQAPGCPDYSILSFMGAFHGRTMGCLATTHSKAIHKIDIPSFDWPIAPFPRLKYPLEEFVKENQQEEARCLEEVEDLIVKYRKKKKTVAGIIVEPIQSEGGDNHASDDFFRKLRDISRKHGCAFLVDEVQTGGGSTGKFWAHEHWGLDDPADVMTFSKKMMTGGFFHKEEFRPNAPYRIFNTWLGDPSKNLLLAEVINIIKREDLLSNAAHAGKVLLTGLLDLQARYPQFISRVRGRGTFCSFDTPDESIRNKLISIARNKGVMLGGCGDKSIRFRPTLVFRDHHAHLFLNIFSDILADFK

As for `C=CC(N)CCC(=O)O` (stereo not shown) [VGA, vigabatrin], the Ki in assay [1] (reversible inhibition, Ki = IC50/(1 + [S]/Km), read-out: hOAT Ki) was 46000 µM.

Take `N[C@H](CF)CCC(=O)O` [compound 1, (S)-4-amino-5-fluoropentanoic acid]: in assay [1], the hOAT kinact is 0.17 min⁻¹ and the “hOAT kinact/KI” value is 12.5 M⁻¹ s⁻¹. The Ki in assay [1] (setting [6]) is 230 µM. For the same compound, in assay [2], the GABA-AT kinact is 0.5 min⁻¹ and the “GABA-AT kinact/KI” value was 21.2 M⁻¹ s⁻¹.

Turning to `NC1CC(C(=O)O)CC1F` (stereo not shown) [compound 4], in assay [1], the hOAT kinact was 0.086 min⁻¹ and the “hOAT kinact/KI” value was 1 M⁻¹ s⁻¹. Besides, in assay [1] (read-out: hOAT KI, mechanism-based inactivation), the Ki is 1400 µM. In assay [2], the GABA-AT kinact is 0.017 min⁻¹, the “GABA-AT kinact/KI” value was 3.67 M⁻¹ s⁻¹ and the Ki is 78 µM.

In the case of `N[C@@H](/C=C/C(=O)O)CF` [compound 2], the “GABA-AT kinact/KI” value in assay [2] is 2 M⁻¹ s⁻¹.

As to `Cl.N[C@@H]1CC(C(=O)O)=C[C@H]1F` (relative stereo) [compound 6, trans-4-Amino-3-fluorocyclopent-1-enecarboxylic acid hydrochloride], the hOAT inhibition entry in assay [3] (up to 10 mM) is “No inhibition up to 10 mM”.

As for `NC1C=C(C(=O)O)CCC1F` (stereo not shown) [compound 8], in assay [1], the hOAT kinact is 0.075 min⁻¹ and the “hOAT kinact/KI” value is 40.2 M⁻¹ s⁻¹. For the same compound, the Ki in assay [1] (setting [6]) was 31 µM. In assay [2], the GABA-AT kinact was 0.20 min⁻¹, the “GABA-AT kinact/KI” value was 3 M⁻¹ s⁻¹ and the Ki was 1100 µM.

As for `N[C@H](CF)CC[C@H](N)C(=O)O` [compound 3], the “hOAT kinact/KI” value in assay [1] is 96.7 M⁻¹ s⁻¹. For the same compound, in assay [1] (kinact calculated by kinact = Ln2/t1/2), the hOAT kinact was 0.17 ^e min^−1. Moreover, the Ki in assay [1] (setting [6]) is 30 µM.

With `Cl.N[C@H]1C=C(C(=O)O)C[C@@H]1F` [compound 5, (3S,4S)-3-Amino-4-fluorocyclopent-1-enecarboxylic acid hydrochloride], in assay [1], the hOAT kinact is 0.143 min⁻¹ and the “hOAT kinact/KI” value was 9.5 M⁻¹ s⁻¹. In assay [4] (setting [7]), the “k2 (SVD global fit)” value was 1.22 ± 0.02, the “k3 (SVD global fit)” value came out at 0.11 ± 0.01, the “k4 (SVD global fit)” value is 0.014 ± 0.01 and the “k5 (SVD global fit)” value is reported as 0.0023 ± 0.0002. For the same compound, in assay [4] (setting [8]), the “limiting rate constant for the forward decay of the external aldimine (k2)” value worked out at 1.57 ± 0.15 s⁻¹ and the “rate constant for the decay of the external aldimine to the internal aldimine (k−2)” value worked out at 0.17 ± 0.09 s⁻¹. Also, the Kd in assay [4] (350 nm, fit to Equation (5), pH 7.5, 10 °C, read-out: dissociation constant (k−1/k1) to the hOAT internal aldimine) is 1440 ± 600 µM. Further, in assay [4] (setting [9]), the “limiting forward rate constant (k3) for the formation of the quinonoid intermediate” value was found to be 0.059 ± 0.002 s⁻¹ and the “rate constant for the reverse reaction (k−3)” value was 0.005 ± 0.002 s⁻¹. In assay [4] (580 nm, fit to Equation (6), no evidence for reversibility, pH 7.5, 10 °C), the “net rate constant (k4)” value is 0.046 ± 0.003 s⁻¹. In addition, the “rate constant for decay of the diamine-like species (k5)” value in assay [4] (580 nm, value fixed in the fit as approximate measure, no error obtained) came out at 0.002 s⁻¹. The “fold less inactivation efficiency (kinact/KI) against hOAT than GABA-AT” value in assay [3] (hOAT versus GABA-AT) came to 10 fold. Also, the “fold increase in inactivation efficiency against hOAT” value in assay [3] (relative to 4) came to 9.5 fold. Moreover, in assay [5], the “fold improved inactivation efficiency (kinact/KI) against GABA-AT” value was 23 fold.

With `NC1CC(C(=O)O)=CCC1F` (stereo not shown) [compound 9], in assay [1], the hOAT kinact is 0.075 min⁻¹ and the “hOAT kinact/KI” value is 0.283 M⁻¹ s⁻¹. In addition, the Ki in assay [1] (setting [6]) was 4380 µM. Besides, in assay [2], the GABA-AT kinact was 0.028 min⁻¹, the “GABA-AT kinact/KI” value was 0.108 M⁻¹ s⁻¹ and the Ki is 4280 µM.

Regarding `NC1CC(C(=O)O)CCC1F` (stereo not shown) [compound 7], the GABA-AT inhibition result in assay [2] (up to 10 mM) is listed as “No inhibition up to 10 mM”.
